Data as given in patent EP0697214A1, “Liposomal cyclosporin pharmaceutical formulations” (VESTAR, INC., priority 1994, dated 1996).

Assays:
[1] = test system: resistant L1210 murine leukemia cells; experiment: Multiple drug resistance test, 3H-thymidine uptake; format: cell-based; settings: Mus musculus, daunorubicin alone, 24 hours, read-out: IC₅₀ in Resistant Cells
Description: (§1) Multiple drug resistance (MDR) was tested in vitro using resistant and sensitive L1210 murine leukemia cells. Liposomal Cyclosporine was obtained as described in Example 13 (19:3:1 formulation HEPC:DMPG:Cyclosporine) except that a spray dried lipid powder was used and the unilamellar vesicles were formed through homogenization. Daunorubicin, Cyclosporine-CreL, and liposomal Cyclosporine were diluted in RPMI-1640. The final concentration of daunorubicin in each well was 0, 0.3, 1, 3, 10, 30, 100 or 1000 ng/ml. The final concentration of Cyclosporine-CreL in each well was 0, 10, 70, 300, 1,250, 5,000, 20,000, 80,000, 160,000, 310,000, 620,000, or 1,050,000 ng/ml. The final concentration of liposomal Cyclosporine in each well was 0, 10, 70, 300, 1,250, 5,000, 20,000, 80,000, 160,000, 310,000, 620,000, or 1,050,000 ng/ml. Fifty microliters of each daunorubicin concentration was added to one well of a flat bottom 96-well culture plate. Fifty microliters of the appropriate concentration of Cyclosporine-CreL or liposomal Cyclosporine were also added to each well. Each drug combination was tested in triplicate. […]
(§2) After 20 hours of incubation, the cells were pulsed with 0.5µCu of³H-Thymidine per well. […] The cells in each well were then harvested using a Skatron Harvester and counted in a beta liquid scintillation counter (LKB). The IC₅₀ was calculated using a linear regression treatment of the data.

[2] = test system: sensitive L1210 murine leukemia cells; experiment: Multiple drug resistance test, 3H-thymidine uptake; format: cell-based; settings: Mus musculus, daunorubicin alone, 24 hours, read-out: IC₅₀ in Sensitive Cells
Description: as §1, §2

Work on COc1cccc2c1C(=O)c1c(O)c3c(c(O)c1C2=O)C[C@@](O)(C(C)=O)C[C@@H]3O[C@H]1C[C@H](N)[C@H](O)[C@H](C)O1 [Daunorubicin] yielded an IC50 [1] of 0.722 µg/mL and an IC50 [2] of 0.47 µg/mL.
